From patent US8877748B2, “Heterocyclic fused anthraquinone derivatives, manufacturing method and pharmaceutical composition using thereof” (National Defense Medical Center, priority 2012, dated 2014)

Assays:
[1] = tested on: PC-3 prostate cancer cell line; experiment: SRB assay cell viability, PC-3 prostate cancer cell line; format: cell-based, human; conditions: Homo sapiens, PC-3 prostate cancer cell line, Table II prints no unit, μM printed, read-out: SRB assay: 50% inhibition of cancer cell proliferation of sample concentration (IC50) of PC-3 prostate cancer cell line
HL-60, TB = experiment: NCI one-dose screening, leukemia HL-60, TB; format: cell-based, human; conditions: 10 μM
MOLT-4 = experiment: NCI one-dose screening, leukemia MOLT-4; format: cell-based, human; conditions: 10 μM
SR = experiment: NCI one-dose screening, leukemia SR; format: cell-based, human; conditions: 10 μM
PRMI-8226 cell line = experiment: NCI one-dose screening, leukemia PRMI-8226; format: cell-based, human; conditions: 10 μM
K562cell line = experiment: NCI one-dose screening, leukemia K562; format: cell-based, human; conditions: 10 μM
HOP-62 = experiment: NCI one-dose screening, non-small cell lung cancer HOP-62; format: cell-based, human; conditions: 10 μM
NCI-H226 = experiment: NCI one-dose screening, non-small cell lung cancer NCI-H226; format: cell-based, human; conditions: 10 μM
NCI-H23 = experiment: NCI one-dose screening, non-small cell lung cancer NCI-H23; format: cell-based, human; conditions: 10 μM
NCI-H322M = experiment: NCI one-dose screening, non-small cell lung cancer NCI-H322M; format: cell-based, human; conditions: 10 μM; Non-small cell lung cancer
NCI-H460 = experiment: NCI one-dose screening, non-small cell lung cancer NCI-H460; format: cell-based, human; conditions: 10 μM
NCI-H522 = experiment: NCI one-dose screening, non-small cell lung cancer NCI-H522; format: cell-based, human; conditions: 10 μM
A549/ATCC = experiment: NCI one-dose screening, non-small cell lung cancer A549/ATCC; format: cell-based, human; conditions: 10 μM
COLO 205 = experiment: NCI one-dose screening, colon cancer COLO 205; format: cell-based, human; conditions: 10 μM
HCC-2998 = experiment: NCI one-dose screening, colon cancer HCC-2998; format: cell-based, human; conditions: 10 μM
HCT-116 = experiment: NCI one-dose screening, colon cancer HCT-116; format: cell-based, human; conditions: 10 μM
HCT-15 = experiment: NCI one-dose screening, colon cancer HCT-15; format: cell-based, human; conditions: 10 μM
KM12 = experiment: NCI one-dose screening, colon cancer KM12; format: cell-based, human; conditions: 10 μM
HT29 = experiment: NCI one-dose screening, colon cancer HT29; format: cell-based, human; conditions: 10 μM
SF-268 = experiment: NCI one-dose screening, CNS cancer SF-268; format: cell-based, human; conditions: 10 μM
SF-539 = experiment: NCI one-dose screening, CNS cancer SF-539; format: cell-based, human; conditions: 10 μM
SNB-19 = experiment: NCI one-dose screening, CNS cancer SNB-19; format: cell-based, human; conditions: 10 μM
SNB-75 = experiment: NCI one-dose screening, CNS cancer SNB-75; format: cell-based, human; conditions: 10 μM
U251 = experiment: NCI one-dose screening, CNS cancer U251; format: cell-based, human; conditions: 10 μM
LOX IMVI = experiment: NCI one-dose screening, melanoma LOX IMVI; format: cell-based, human; conditions: 10 μM
MALME-3M = experiment: NCI one-dose screening, melanoma MALME-3M; format: cell-based, human; conditions: 10 μM
M14 = experiment: NCI one-dose screening, melanoma M14; format: cell-based, human; conditions: 10 μM
UACC-62 = experiment: NCI one-dose screening, melanoma UACC-62; format: cell-based, human; conditions: 10 μM
UACC-257 = experiment: NCI one-dose screening, melanoma UACC-257; format: cell-based, human; conditions: 10 μM
SK-MEL-2 = experiment: NCI one-dose screening, melanoma SK-MEL-2; format: cell-based, human; conditions: 10 μM
SK-MEL-28 = experiment: NCI one-dose screening, melanoma SK-MEL-28; format: cell-based, human; conditions: 10 μM
SK-MEL-5 = experiment: NCI one-dose screening, melanoma SK-MEL-5; format: cell-based, human; conditions: 10 μM
IGROV1 = experiment: NCI one-dose screening, ovarian cancer IGROV1; format: cell-based, human; conditions: 10 μM
OVCAR-3 = experiment: NCI one-dose screening, ovarian cancer OVCAR-3; format: cell-based, human; conditions: 10 μM
OVCAR-4 = experiment: NCI one-dose screening, ovarian cancer OVCAR-4; format: cell-based, human; conditions: 10 μM
OVCAR-5 = experiment: NCI one-dose screening, ovarian cancer OVCAR-5; format: cell-based, human; conditions: 10 μM
OVCAR-8 = experiment: NCI one-dose screening, ovarian cancer OVCAR-8; format: cell-based, human; conditions: 10 μM
786-O = experiment: NCI one-dose screening, renal cancer 786-O; format: cell-based, human; conditions: 10 μM
ACHN = experiment: NCI one-dose screening, renal cancer ACHN; format: cell-based, human; conditions: 10 μM
SN12C = experiment: NCI one-dose screening, renal cancer SN12C; format: cell-based, human; conditions: 10 μM
TK-10 = experiment: NCI one-dose screening, renal cancer TK-10; format: cell-based, human; conditions: 10 μM
RXF, 393 = experiment: NCI one-dose screening, renal cancer RXF, 393; format: cell-based, human; conditions: 10 μM
NCl/ADR-RES = experiment: NCI one-dose screening, breast cancer NCl/ADR-RES; format: cell-based, human; conditions: 10 μM; listed under Ovarian cancer

O=C1c2ccccc2C(=O)c2c1cc(SCc1ccc(Cl)cc1)c1nsnc21 [C56, 4-(4-chloro-benzylthio)anthra[2,1-c] [1,2,5]thiadiazol-6,11-dione]
IC50 [1]: > 15 µM | Growth Percent HL-60(TB) (HL-60, TB): 57.42% | Growth Percent MOLT-4 (MOLT-4): 22.72% | Growth Percent SR (SR): 63.73% | Growth Percent RPMI-8226 (PRMI-8226 cell line): 86.78% | Growth Percent K562 (K562cell line): 67.53% | Growth Percent HOP-62 (HOP-62): 89.15% | Growth Percent NCI-H226 (NCI-H226): 82.14% | Growth Percent NCI-H23 (NCI-H23): 82.13% | Growth Percent NCI-H322M (NCI-H322M): 94.10% | Growth Percent NCI-H460 (NCI-H460): 104.55% | Growth Percent NCI-H522 (NCI-H522): 82.61% | Growth Percent A549/ATCC (A549/ATCC): 100.62% | Growth Percent COLO 205 (COLO 205): 99.94% | Growth Percent HCC-2998 (HCC-2998): 102.54% | Growth Percent HCT-116 (HCT-116): 114.73% | Growth Percent HCT-15 (HCT-15): 97.91% | Growth Percent KM12 (KM12): 105.46% | Growth Percent HT29 (HT29): 96.41% | Growth Percent SF-268 (SF-268): 107.19% | Growth Percent SF-539 (SF-539): 97.95% | Growth Percent SNB-19 (SNB-19): 104.30% | Growth Percent SNB-75 (SNB-75): 63.35% | Growth Percent U251 (U251): 94.44% | Growth Percent LOX IMVI (LOX IMVI): 86.69% | Growth Percent MALME-3M (MALME-3M): 86.38% | Growth Percent M14 (M14): 126.40% | Growth Percent UACC-62 (UACC-62): 101.52% | Growth Percent UACC-257 (UACC-257): 78.70% | Growth Percent SK-MEL-2 (SK-MEL-2): 109.63% | Growth Percent SK-MEL-28 (SK-MEL-28): 95.35% | Growth Percent SK-MEL-5 (SK-MEL-5): 89.57% | Growth Percent IGROV1 (IGROV1): 84.25% | Growth Percent OVCAR-3 (OVCAR-3): 113.46% | Growth Percent OVCAR-4 (OVCAR-4): 84.19% | Growth Percent OVCAR-5 (OVCAR-5): 104.48% | Growth Percent OVCAR-8 (OVCAR-8): 94.19% | Growth Percent 786-0 (786-O): 117.98% | Growth Percent ACHN (ACHN): 94.35% | Growth Percent SN12C (SN12C): 93.61% | Growth Percent TK-10 (TK-10): 121.91% | Growth Percent RXF 393 (RXF, 393): 104.79% | Growth Percent NCI/ADR-RES (NCl/ADR-RES): 95.73% | melting point: 261 to 262 °C
